From ChEMBL document CHEMBL5352389, “Design and synthesis of chromone-based monoamine oxidase B inhibitors with improved drug-like properties” (Eur J Med Chem, 2022)

Key:
[1] = target: T1, Amine oxidase [flavin-containing] B (Homo sapiens, UniProt P27338); test: Inhibition of human MAO-B using p-tyramine as substrate at 10 uM incubated for 15 mins by Amplex red and horseradish peroxidase based fluorescence assay; settings: 0.25 h
T1 sequence (P27338 whole entry): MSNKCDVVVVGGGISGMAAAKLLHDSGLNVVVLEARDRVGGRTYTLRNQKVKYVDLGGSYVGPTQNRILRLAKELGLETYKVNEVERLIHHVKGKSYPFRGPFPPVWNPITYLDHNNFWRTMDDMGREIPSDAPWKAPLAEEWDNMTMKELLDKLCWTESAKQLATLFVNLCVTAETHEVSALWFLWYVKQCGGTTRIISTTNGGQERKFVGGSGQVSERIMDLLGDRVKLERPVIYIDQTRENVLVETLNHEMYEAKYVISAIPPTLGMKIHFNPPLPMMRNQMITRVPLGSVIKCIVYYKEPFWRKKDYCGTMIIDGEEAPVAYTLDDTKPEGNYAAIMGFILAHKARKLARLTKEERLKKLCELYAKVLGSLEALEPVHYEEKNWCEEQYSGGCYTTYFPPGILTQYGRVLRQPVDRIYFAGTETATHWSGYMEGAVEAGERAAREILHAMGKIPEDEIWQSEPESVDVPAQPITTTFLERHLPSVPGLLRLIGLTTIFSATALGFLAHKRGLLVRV

[2] = target: T2, Amine oxidase [flavin-containing] A (Homo sapiens, UniProt P21397); test: Inhibition of human MAO-A using p-tyramine as substrate at 10 uM incubated for 15 mins by Amplex red and horseradish peroxidase based fluorescence assay; settings: 0.25 h
T2 sequence (P21397 whole entry): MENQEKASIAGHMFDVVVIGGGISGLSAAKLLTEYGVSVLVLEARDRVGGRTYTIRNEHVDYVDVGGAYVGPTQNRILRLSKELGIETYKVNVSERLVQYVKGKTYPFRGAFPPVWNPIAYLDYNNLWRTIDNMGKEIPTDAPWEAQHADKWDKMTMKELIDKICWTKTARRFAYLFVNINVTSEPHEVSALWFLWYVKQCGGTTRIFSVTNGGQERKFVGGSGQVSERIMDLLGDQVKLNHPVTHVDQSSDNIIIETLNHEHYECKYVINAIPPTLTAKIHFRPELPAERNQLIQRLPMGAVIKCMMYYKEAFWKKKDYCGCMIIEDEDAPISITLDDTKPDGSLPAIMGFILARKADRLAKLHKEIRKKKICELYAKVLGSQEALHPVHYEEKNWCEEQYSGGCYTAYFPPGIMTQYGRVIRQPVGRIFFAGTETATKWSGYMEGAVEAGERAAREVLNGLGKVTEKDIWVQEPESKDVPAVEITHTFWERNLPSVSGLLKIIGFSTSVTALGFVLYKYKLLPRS

[3] = target: T1, Amine oxidase [flavin-containing] B; test: Inhibition of human MAO-B using p-tyramine as substrate incubated for 15 mins by Amplex red and horseradish peroxidase based fluorescence assay
[4] = species on record: Homo sapiens; test: Selectivity index, ratio of IC50 for human MAO-A to IC50 for human MAO-B
[5] = Cytotoxicity against human SH-SY5Y cells assessed as cell viability by measuring metabolic activity upto 10 uM incubated for 24 hrs by resazurin dye based assay relative to control; format: toxicity; settings: read-out: Activity
[6] = Cytotoxicity against human SH-SY5Y cells assessed as cell viability by measuring lysosomal activity upto 10 uM incubated for 24 hrs by neutral red uptake assay relative to control; format: toxicity, cell-based; settings: read-out: Activity
[7] = tested on: SH-SY5Y; test: Iron(III) chelating activity in FeNTA-treated human SH-SY5Y cells assessed as cell viability by measuring lysosomal activity at 1 to 10 uM measured after 24 hrs by neutral red uptake assay (reference value: 66.5 +/- […] %); format: cell-based; settings: dose 1-10 µM
[8] = target: T2, Amine oxidase [flavin-containing] A; test: Inhibition of human MAO-A using p-tyramine as substrate incubated for 15 mins by Amplex red and horseradish peroxidase based fluorescence assay
[9] = target: T3, MAO-A (amine oxidase [flavin-containing] A) (Homo sapiens, UniProt P21397); test: Inhibition of human MAO-A using p-tyramine as substrate incubated for 15 mins by Amplex red and horseradish peroxidase based fluorescence assay relative to control; settings: human MAO-A enzyme, probe p-tyramine
T3 sequence (P21397 whole entry): T2 sequence (P21397 whole entry)

[10] = tested on: SH-SY5Y; test: Iron(III) chelating activity in FeNTA-treated human SH-SY5Y cells assessed as cell viability by measuring lysosomal activity at 10 uM measured after 24 hrs by neutral red uptake assay (reference value: 66.5 +/- […] %); format: cell-based

| SMILES | inhibition (INH) [2] | IC50 [3] [nM] | Ratio IC50 [4] | further results |
| --- | --- | --- | --- | --- |
| COc1ccc2oc(C(=O)Nc3cccc(Cl)c3)cc(=O)c2c1 | Not Active |  |  | inhibition (INH) [1]: Not Active |
| COc1ccc2occ(C(=O)Nc3ccc(C)cc3)c(=O)c2c1 | Not Active |  | > 48 |  |
| COc1ccc2oc(C(=O)Nc3ccccc3)cc(=O)c2c1 | Not Active |  |  | inhibition (INH) [1]: Not Active |
| COc1ccc2oc(C(=O)Nc3ccc(C)c(C)c3)cc(=O)c2c1 | Not Active |  |  | inhibition (INH) [1]: Not Active |
| O=C(Nc1cccc(Cl)c1)c1cc(=O)c2cc(O)ccc2o1 |  | 68.9 | 130 | IC50 [8]: 9000 nM |
| Cc1ccc(NC(=O)c2cc(=O)c3cc(O)ccc3o2)cc1 | Not Active | 55.1 | > 181 |  |
| O=C(Nc1ccc(Cl)cc1)c1cc(=O)c2cc(O)ccc2o1 | Not Active | 14.3 | > 700 | viability at 24 h, up to 10 µM [5]: ≥ 94.4%; viability at 24 h, up to 10 µM [6]: ≥ 94.4% |
| C[C@H](NCc1ccc(OCc2cccc(F)c2)cc1)C(N)=O [SAFINAMIDE] |  |  |  | inhibition at 0.25 h [9]: 23.7% |
| O=C(Nc1ccc(Cl)cc1)c1coc2cccc(O)c2c1=O | Not Active | 8.3 | > 1200 | Activity [7]: 74.4%; viability at 24 h, up to 10 µM [5]: ≥ 94.4%; viability at 24 h, up to 10 µM [6]: ≥ 94.4% |
| Cc1ccc(NC(=O)c2cc(=O)c3cc(O)ccc3o2)cc1C |  | 29.1 | 116 | IC50 [8]: 3370 nM |
| COc1ccc2occ(C(=O)Nc3ccc(C)c(C)c3)c(=O)c2c1 | Not Active | 28.4 | > 352 |  |
| Cc1ccc(NC(=O)c2coc3cccc(O)c3c2=O)cc1 | Not Active | 15.7 | > 637 | Activity [7]: 74.4%; viability at 24 h, up to 10 µM [5]: ≥ 94.4%; viability at 24 h, up to 10 µM [6]: ≥ 94.4% |
| COc1ccc2oc(C(=O)Nc3ccc(O)cc3)cc(=O)c2c1 | Not Active |  |  | inhibition (INH) [1]: Not Active |
| COc1ccc2oc(C(=O)Nc3ccc(Cl)cc3)cc(=O)c2c1 | Not Active |  |  | inhibition (INH) [1]: Not Active |
| O=C(Nc1ccc(O)cc1)c1cc(=O)c2cc(O)ccc2o1 | Not Active | 1030 | > 9.7 |  |
| COc1ccc2oc(C(=O)Nc3ccc(C)cc3)cc(=O)c2c1 |  |  | > 0.061 | inhibition (INH) [1]: Not Active; IC50 [8]: 607 nM |
| Cc1ccc(NC(=O)c2coc3cccc(O)c3c2=O)cc1C | Not Active | 15.4 | > 649 | Activity [7]: 74.4%; viability at 24 h, up to 10 µM [5]: ≥ 94.4%; viability at 24 h, up to 10 µM [6]: ≥ 94.4% |

The next lines start with results.

| inhibition (INH) [2] | IC50 [3] [nM] | Ratio IC50 [4] | SMILES | further results |
| --- | --- | --- | --- | --- |
| Not Active | 240 | > 42 | O=C(Nc1ccccc1)c1coc2ccc(O)cc2c1=O |  |
| Not Active | 31.3 | > 319 | O=C(Nc1ccccc1)c1cc(=O)c2cc(O)ccc2o1 |  |
| Not Active | 344 | > 29 | Cc1ccc(NC(=O)c2coc3ccc(O)cc3c2=O)cc1 |  |
| Not Active |  | > 970 | COc1ccc2occ(C(=O)Nc3ccc(Cl)cc3)c(=O)c2c1 | viability at 24 h, up to 10 µM [5]: ≥ 94.4%; viability at 24 h, up to 10 µM [6]: ≥ 94.4% |
| Not Active | 25 | > 400 | O=C(Nc1cccc(Cl)c1)c1coc2cccc(O)c2c1=O | Activity [7]: 74.4%; viability at 24 h, up to 10 µM [5]: ≥ 94.4%; viability at 24 h, up to 10 µM [6]: ≥ 94.4% |
| Not Active | 4830 | > 2.1 | O=C(Nc1ccc(O)cc1)c1coc2ccc(O)cc2c1=O |  |
| Not Active | 29.8 | > 336 | O=C(Nc1cccc(Cl)c1)c1coc2ccc(O)cc2c1=O |  |
| Not Active |  | > 239 | COc1ccc2occ(C(=O)Nc3ccccc3)c(=O)c2c1 |  |
| Not Active | 598 | > 17 | O=C(Nc1ccc(O)cc1)c1coc2cccc(O)c2c1=O |  |
|  | 97.2 | 64 | O=C(Nc1ccc(Cl)cc1)c1coc2ccc(O)cc2c1=O | IC50 [8]: 6190 nM |
| Not Active | 6.8 | > 1470 | COc1ccc2occ(C(=O)Nc3cccc(Cl)c3)c(=O)c2c1 | viability at 24 h, up to 10 µM [5]: ≥ 94.4%; viability at 24 h, up to 10 µM [6]: ≥ 94.4% |
| Not Active | 13 | > 769 | O=C(Nc1ccccc1)c1coc2cccc(O)c2c1=O | Activity [10]: 74.4%; viability at 24 h, up to 10 µM [5]: ≥ 94.4%; viability at 24 h, up to 10 µM [6]: ≥ 94.4% |
| Not Active | 262 | > 38 | Cc1ccc(NC(=O)c2coc3ccc(O)cc3c2=O)cc1C |  |
| Not Active |  | > 15 | COc1ccc2occ(C(=O)Nc3ccc(O)cc3)c(=O)c2c1 |  |
